Results published in US4277492A, “Novel 4-bis((Phenylmethyl)amino)-benzenesulfonic acids possessing antiviral activity” (priority 1980, dated 1981).
In brackets after ≈: the same amount, converted by molar mass.

Assays:
[1] = tested on: rhinovirus type 1A (RV-1A); assay: Tissue culture antiviral testing, RV-1A (viral cytopathic effect in HeLa cells); assay type: cell-based; conditions: Enterovirus, 48 and 72 hours post-treatment, read-out: Lowest concentration of compound necessary to cause a 50 percent reduction in cytopathic effect, RV-1A
Protocol: (§1) Monolayered HeLa cells in 16 millimeter (mm) tissue culture dishes were treated with 1 ml of culture medium (Eagles medium supplemented with fetal calf serum) containing compound at 100, 50, 25, 12.5, 6.25 or 0 μg/ml. Culture mediums such as those described herein are more fully described in standard tests, as for example, Kuchler's Biochemical Methods in Cell Culture and Virology, Dowden, Hutchinson and Ross, Inc., Stroudsberg, PA (1977). Immediately following treatment, cells were challenged with 0.05 ml of rhinovirus type 1A (RV-1A), rhinovirus type 2 (RV-2) or coxsackie A21 virus (Cox A21) in culture medium. Cell controls received no virus.
(§2) **Lowest concentration of compound (μg/ml) necessary to cause a 50
(§3) percent reduction in cytopathic effect.

rhinovirus type 2 (RV-2) = assay: Tissue culture antiviral testing, RV-2 (viral cytopathic effect in HeLa cells); assay type: cell-based; conditions: Enterovirus, 48 and 72 hours post-treatment, read-out: Lowest concentration of compound necessary to cause a 50 percent reduction in cytopathic effect, RV-2
Protocol: as §1, §2, §3

[2] = tested on: coxsackie A21 virus (Cox A21); assay: Tissue culture antiviral testing, Cox A21 (viral cytopathic effect in HeLa cells); assay type: cell-based; conditions: 48 and 72 hours post-treatment, read-out: Lowest concentration of compound necessary to cause a 50 percent reduction in cytopathic effect, Cox A21
Protocol: as §1, §2, §3

[3] = Cytotoxicity in tissue culture (monolayered HeLa cells); assay type: cell-based; conditions: human, observed at 48 and 72 hours post-treatment, read-out: Cytotoxicity (concentration of compound found to be toxic to the cell)
Protocol: as §1
*Cytotoxicity figures represent the concentration of compound (μg/ml)
found to be toxic to the cell.

Cox A21 virus = assay: Animal testing, mice challenged intraperitoneally with a normally lethal dose of Cox A21 virus; assay type: in vivo, Swiss male mice; conditions: 600 mg/kg PO; at the 95 percent confidence level
Protocol: The subject compounds were also tested in animals as follows:
Swiss male mice, 10-12 g in weight, were challenged intraperitoneally (IP) with 0.2 ml of a normally lethal dose, i.e., a virus dose sufficient to cause .congruent.80-100 percent mortality in infected animals within 10 days of challenge, of Cox A21 virus in phosphate buffered saline containing 1 percent heat inactivated fetal calf serum. Three hours later, mice were treated orally (PO) with 0.2 ml of compound suspended in 0.5 percent hydroxypropyl methylcellulose (Methocel) or with 0.2 ml of Methocel alone. The test compounds were administered at a 30 milligram/milliliter (mg/ml) concentration, which is a 600 milligram/kilogram (mg/kg) dosage. Mice were counted daily for 7-10 days post-challenge and deaths recorded. A modified Mantel-Haenzel combined chi-square (X^2) procedure was used to determine significant difference between virus control and treated groups. Chi-square values greater than 3.84 are considered significant (95 percent confidence level) in this test.

Structure (SMILES) | EC50 [1] [µg/mL] | EC50 (rhinovirus type 2 (RV-2)) [µg/mL] | EC50 [2] [µg/mL] | MCC [3] [µg/mL] | Antiviral activity in testing with mice (in words) (Cox A21 virus)
O=[N+]([O-])c1cccc(CN(Cc2cccc([N+](=O)[O-])c2)c2ccc(S(=O)(=O)O)cc2)c1 [Example 1, 4-(Bis((3-nitrophenyl)methyl)amino)benzenesulfonic Acid] | 6.25 (≈ 14.1 µM) | > 100 | < 6.25 | 25 | –
O=S(=O)(O)c1ccc(N(Cc2c(Cl)cccc2Cl)Cc2c(Cl)cccc2Cl)cc1 [Example 2, 4-(Bis((2,6-dichlorophenyl)methyl)amino)benzenesulfonic Acid] | 6.25 (≈ 12.7 µM) | 12.5 (≈ 25.4 µM) | < 6.25 | 12.5 | –
O=S(=O)(O)c1ccc(N(Cc2ccc(F)cc2)Cc2ccc(F)cc2)cc1 [Example 3, 4-(Bis((4-fluorophenyl)methyl)amino)benzenesulfonic Acid] | 12.5 (≈ 32.1 µM) | > 100 | < 6.25 | 100 | active antiviral compounds in testing with mice
O=S(=O)(O)c1ccc(N(Cc2ccc(F)cc2)Cc2ccc(Cl)cc2)cc1 [Example 4, 4-(((4-Chlorophenyl)methyl)((4-fluorophenyl)-methyl)amino)benzenesulfonic Acid] | 50 (≈ 123 µM) | > 100 | < 6.25 | 50 | active antiviral compounds in testing with mice
O=S(=O)(O)c1ccc(N(Cc2ccc(Cl)cc2)Cc2ccc(Cl)cc2)cc1 [Example 5, 4-(Bis((4-chlorophenyl)methyl)amino)benzenesulfonic Acid] | 12.5 (≈ 29.6 µM) | > 100 | < 6.25 | 25 | active antiviral compounds in testing with mice
O=S(=O)(O)c1ccc(N(Cc2cccc(Cl)c2)Cc2cccc(Cl)c2)cc1 [Example 6, 4-(Bis((3-chlorophenyl)methyl)amino)benzenesulfonic Acid] | > 50 | > 100 | < 6.25 | 100 | active antiviral compounds in testing with mice
O=S(=O)(O)c1ccc(N(Cc2ccc(Br)cc2)Cc2ccc(Br)cc2)cc1 [Example 7, 4-(Bis((4-bromophenyl)methyl)amino)benzenesulfonic Acid] | 12.5 (≈ 24.5 µM) | > 100 | < 6.25 | 25 | active antiviral compounds in testing with mice
O=S(=O)(O)c1ccc(N(Cc2ccccc2F)Cc2ccccc2F)cc1 [Example 8, 4-(Bis((2-fluorophenyl)methyl)amino)benzenesulfonic Acid] | > 100 | > 100 | < 6.25 | 100 | –
O=S(=O)(O)c1ccc(N(Cc2cccc(F)c2)Cc2cccc(F)c2)cc1 [Example 9, 4-(Bis((3-fluorophenyl)methyl)amino)benzenesulfonic Acid] | 50 (≈ 128 µM) | > 100 | 12.5 (≈ 32.1 µM) | 100 | active antiviral compounds in testing with mice
